# Laboratory results as given in the supplement of paper PMC10307832.
# Columns and labels:
# Assay in all cases: relative viability (nuclei count vs DMSO), 5 days (fraction); higher = more cells survive
# TGX 221 + Crizotinib = compound: CC1=CN2C(=O)C=C(N=C2C(=C1)C(C)NC3=CC=CC=C3)N4CCOCC4 [TGX 221] + C[C@@H](Oc1cc(-c2cnn(C3CCNCC3)c2)cnc1N)c1c(Cl)ccc(F)c1Cl [Crizotinib] (partner 1 µM)
# In short: (§1)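 Medians of duplicate plates are given as relative viability. That measure is the nuclei count in treated wells divided by the count in vehicle wells. Counts were taken on 4× images of lung cancer cell lines in 1536-well plates, 5 days after pin-tool dosing the day after seeding with one drug alone or a fixed anchor-drug dose plus five library-drug doses (not always all listed) in √10 steps.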
# TGX 221 + Bortezomib = compound: CC1=CN2C(=O)C=C(N=C2C(=C1)C(C)NC3=CC=CC=C3)N4CCOCC4 [TGX 221] + CC(C)C[C@H](NC(=O)[C@H](Cc1ccccc1)NC(=O)c1cnccn1)B(O)O [Bortezomib] (partner 0.002 µM)
# In short: as §1
# [1] = compound: C1=CC=C(C(=C1)C2=CC=C(C=C2)C3=CSC4=C3C(=C(C(=O)N4)C#N)O)O + CC(C)C[C@H](NC(=O)[C@H](Cc1ccccc1)NC(=O)c1cnccn1)B(O)O [Bortezomib] (partner 0.002 µM)
# In short: as §1
# TGX 221 + Dasatinib = compound: CC1=CN2C(=O)C=C(N=C2C(=C1)C(C)NC3=CC=CC=C3)N4CCOCC4 [TGX 221] + Cc1nc(Nc2ncc(C(=O)Nc3c(C)cccc3Cl)s2)cc(N2CCN(CCO)CC2)n1 [Dasatinib] (partner 0.075 µM)
# In short: as §1
Cell Line,relative viability (TGX 221 + Crizotinib; first compound 0.253 µM),relative viability (TGX 221 + Crizotinib; first compound 0.8 µM),relative viability (TGX 221 + Crizotinib; first compound 2.53 µM),relative viability (TGX 221 + Crizotinib; first compound 8 µM),relative viability (TGX 221 + Bortezomib; first compound 0.253 µM),relative viability (TGX 221 + Bortezomib; first compound 0.8 µM),relative viability (TGX 221 + Bortezomib; first compound 2.53 µM),relative viability (TGX 221 + Bortezomib; first compound 8 µM),relative viability ([1]; first compound 0.08 µM),relative viability ([1]; first compound 0.253 µM),relative viability ([1]; first compound 0.8 µM),relative viability ([1]; first compound 2.53 µM),relative viability ([1]; first compound 8 µM),relative viability (TGX 221 + Dasatinib; first compound 0.08 µM),relative viability (TGX 221 + Dasatinib; first compound 0.253 µM),relative viability (TGX 221 + Dasatinib; first compound 0.8 µM),relative viability (TGX 221 + Dasatinib; first compound 2.53 µM),relative viability (TGX 221 + Dasatinib; first compound 8 µM),relative viability (TGX 221 + Crizotinib; first compound 0.08 µM),relative viability (TGX 221 + Bortezomib; first compound 0.08 µM)
201T,1.07,1.01,0.993,0.985,1.15,1.08,1.05,0.996,1.09,1.13,1.14,1.09,1.13,0.596,0.584,0.54,0.508,0.541,,
A549,0.743,0.773,0.751,0.529,,,,,,,,,,,,,,,0.677,
A-427,0.924,0.879,0.776,0.824,0.99,0.965,0.942,0.993,0.963,1.05,1.02,1.03,1.06,0.696,0.735,0.671,0.657,0.692,0.958,0.954
ABC-1,0.809,1.25,1.01,1.26,0.243,0.348,0.315,0.29,0.281,0.326,0.326,0.364,0.324,0.531,0.569,0.682,0.472,0.577,0.946,0.325
BEN,0.641,0.821,0.795,0.721,0.694,0.528,0.756,0.915,0.578,0.789,0.944,0.892,0.676,0.385,0.266,0.317,0.328,0.293,0.931,0.773
CAL-12T,0.673,0.72,0.689,0.595,0.952,0.918,,1.05,,0.898,0.911,0.936,0.804,0.365,0.34,0.383,0.31,0.373,0.53,
COR-L23,0.523,0.727,0.597,0.619,0.964,0.928,1.06,1.01,0.864,0.703,1.11,1.09,0.496,0.483,0.457,0.538,0.488,0.431,0.597,0.876
COR-L 105,0.748,0.967,0.728,0.519,0.816,1.01,0.698,0.736,0.767,0.78,0.819,0.779,0.58,0.286,0.252,0.264,0.406,0.23,0.883,0.832
Calu-6,0.698,0.806,0.768,0.693,0.973,1.22,1,0.896,1.18,1.14,1.26,1.06,0.971,,,,,,0.718,1.02
ChaGo-K-1,1.01,1.18,1.11,0.989,1.02,1.02,0.984,1.16,0.658,0.955,0.957,1.21,0.954,0.548,0.536,0.615,0.494,0.575,1.1,0.866
EBC-1,0.183,0.211,0.178,0.183,0.51,0.619,0.4,0.408,0.629,0.435,0.489,0.598,0.509,,,,,,0.203,0.523
EKVX,0.832,0.843,0.927,0.773,1.11,0.939,0.985,0.986,0.879,0.998,1.03,1.02,0.917,0.399,0.523,0.432,0.493,0.365,0.85,1.02
EMC-BAC-2,0.706,0.746,0.743,0.569,1.02,1.08,1.03,1.07,0.995,1.25,1.15,1.05,0.957,0.279,0.306,0.321,0.315,0.351,0.745,1.02
EPLC-272H,0.57,0.833,,0.72,0.879,0.893,,1,,0.973,0.852,0.858,0.652,0.392,0.29,0.351,0.302,0.287,0.827,0.966
H3255,0.812,0.881,0.848,0.575,0.732,0.792,0.776,0.708,0.79,0.802,0.646,0.789,0.686,0.257,0.417,0.355,0.307,0.342,0.745,0.685
HARA,1.02,0.905,1.16,0.795,1.07,1.05,1.09,1.2,,,1.25,1.03,1.13,0.207,0.254,0.289,0.26,0.315,1.06,1.13
HCC-15,0.783,0.852,0.772,0.811,0.953,0.93,1.04,1.06,0.816,1.14,1.02,1.16,1.14,0.595,0.575,0.657,0.564,0.608,0.821,1.02
HCC-44,0.794,0.875,0.758,0.733,0.935,0.945,0.851,0.997,0.899,0.918,0.909,0.92,0.976,,,,,,0.83,0.951
HCC-78,0.334,,0.294,0.274,0.38,0.429,0.24,0.335,0.529,0.771,0.536,0.417,0.428,0.405,0.324,0.231,0.235,0.246,0.385,0.435
HCC-366,0.524,0.483,0.448,0.398,1.03,1.12,0.99,1.09,1.04,1.14,1.34,0.682,0.642,0.693,0.606,0.639,0.586,0.55,0.561,0.863
HCC-827,0.937,0.985,0.859,0.892,1.06,1.07,1.17,1.07,0.967,1.05,1,1.08,1.07,0.28,0.296,0.387,0.273,0.15,0.884,0.981

Cell Line,relative viability (TGX 221 + Crizotinib; first compound 0.253 µM),relative viability (TGX 221 + Crizotinib; first compound 0.8 µM),relative viability (TGX 221 + Crizotinib; first compound 2.53 µM),relative viability (TGX 221 + Crizotinib; first compound 8 µM),relative viability (TGX 221 + Bortezomib; first compound 0.253 µM),relative viability (TGX 221 + Bortezomib; first compound 0.8 µM),relative viability (TGX 221 + Bortezomib; first compound 2.53 µM),relative viability (TGX 221 + Bortezomib; first compound 8 µM),relative viability ([1]; first compound 0.08 µM),relative viability ([1]; first compound 0.253 µM),relative viability ([1]; first compound 0.8 µM),relative viability ([1]; first compound 2.53 µM),relative viability ([1]; first compound 8 µM),relative viability (TGX 221 + Dasatinib; first compound 0.08 µM),relative viability (TGX 221 + Dasatinib; first compound 0.253 µM),relative viability (TGX 221 + Dasatinib; first compound 0.8 µM),relative viability (TGX 221 + Dasatinib; first compound 2.53 µM),relative viability (TGX 221 + Dasatinib; first compound 8 µM),relative viability (TGX 221 + Crizotinib; first compound 0.08 µM),relative viability (TGX 221 + Bortezomib; first compound 0.08 µM)
HOP-62,0.873,0.992,0.953,0.88,0.85,0.788,0.847,0.93,0.805,0.632,0.783,0.742,0.505,0.668,0.566,0.635,0.533,0.534,0.893,0.605
IA-LM,0.711,0.903,0.864,0.788,1.02,1.04,0.869,0.735,0.672,1.13,0.879,1.01,0.58,,,,,,0.879,0.915
LC-2-ad,0.423,0.475,0.499,0.486,,1.07,1.05,0.928,1,1.09,1.02,1,1.01,0.459,0.51,0.66,0.55,0.505,0.438,0.978
LCLC-97TM1,0.299,0.41,0.263,0.252,0.421,0.504,0.736,0.405,0.344,0.44,,0.572,0.343,0.902,0.73,0.779,0.742,0.791,0.394,0.586
LCLC-103H,1.06,0.986,0.959,0.876,1.12,0.981,1.01,1.06,0.99,1.13,1.05,1.13,1.15,0.359,0.438,0.446,0.344,0.307,1.12,0.999
LK-2,0.212,0.235,0.213,0.269,,,,,,,,,,0.242,0.293,0.312,0.298,0.265,0.252,
LOU-NH91,0.75,0.746,0.735,0.655,0.52,0.514,0.381,0.51,0.428,0.496,0.449,0.515,0.443,0.561,0.541,0.535,0.571,0.529,0.796,0.492
LU99A,0.577,0.516,0.517,0.563,0.887,1.04,1.04,1.09,1.26,1.03,1.43,1.14,1,0.507,0.507,0.509,0.556,0.593,0.493,1.06
LXF-289,0.832,0.808,0.774,0.82,0.979,0.915,0.974,1.06,0.974,0.973,1,1,0.986,0.209,0.254,0.194,0.18,0.203,0.813,1.02
NCI-H358,0.535,0.661,0.633,0.395,,,,,,,,,,0.158,0.169,0.146,0.165,0.158,0.556,
NCI-H522,,,,,,,,,,,,,,0.834,0.81,0.851,0.843,0.826,,
NCI-H1299,0.942,0.949,0.96,0.904,1,0.989,1.03,0.948,1.07,1.04,0.995,1,0.975,,,,,,0.933,0.985
NCI-H1395,,,,,,,,,,,,,,0.399,0.383,0.406,0.348,0.362,,
NCI-H1623,,,,,,,,,,,,,,0.538,0.564,0.599,0.541,0.536,,
NCI-H1703,0.618,0.715,0.31,0.54,0.323,0.305,0.234,0.281,0.28,0.395,0.289,0.301,0.38,,,,,,0.797,0.244
NCI-H1793,,,,,,,,,,,,,,0.344,0.289,0.363,0.48,0.381,,
NCI-H1944,1.03,1.02,1.09,0.863,,,,,,,,,,0.225,0.202,0.228,0.206,0.181,1.07,
NCI-H2170,1.2,1.19,0.987,1.14,,,,,,,,,,0.542,0.48,0.527,0.519,0.507,1.11,
NCI-H2342,,,,,,,,,,,,,,0.286,0.339,0.314,0.292,0.299,,
SK-MES-1,0.982,0.998,0.841,0.582,,,,,,,,,,0.315,0.275,0.305,0.223,0.162,1.05,
SW 900,,,,,,,,,,,,,,0.461,0.444,0.383,0.39,0.254,,
